Assay results from ChEMBL document CHEMBL5131389, “PSMA-targeted small-molecule docetaxel conjugate: Synthesis and preclinical evaluation” (Eur J Med Chem, 2022).

How the values were obtained:
CWR22R [1] = experiment: Cytotoxicity against human 22Rv1 cells assessed as reduction in cell viability measured after 72 hrs by MTT assay; assay type: functional
[2] = Chronic toxicity in rat assessed as increase in creatinine concentration at 18.75 to 22.5 mg/kg, iv administered as pluronic F127 formulation at 4 intervals for 21 days and observed 3 weeks post last injection relative to control; assay type: organism-based; settings: in vivo, 2544 h, dose 18.75-22.5 mg/kg, time 106 day
CWR22R [3] = experiment: Antitumor activity against human 22Rv1 cells xenografted in Balb/c nude mouse assessed as tumor growth inhibition at 20 mg/kg, ip administered once in two days for three times and measured 4 days after the end of treatment relative to control; assay type: functional; settings: 22Rv1, 240 h, time 10 day, read-out: TGI
[4] = Toxicity in Balb/c nude mouse xenografted with human 22Rv1 cells assessed as animal death at 20 mg/kg, ip measured upto 30 days; assay type: organism-based, CWR22R; settings: in vivo, 720 h, time < 30 day
[5] = Toxicity in Balb/c nude mouse xenografted with human 22Rv1 cells assessed as animal death at 10 mg/kg, ip measured upto 30 days; assay type: organism-based, CWR22R; settings: in vivo, 720 h, time < 30 day
[6] = Toxicity in BALB/c nude mouse xenografted with human DU-145 cells assessed as animal death at 30 to 60 mg/kg, ip measured upto 30 days; assay type: organism-based; settings: in vivo, 720 h, dose 30-60 mg/kg, time < 30 day
[7] = Chronic toxicity in Soviet Chinchilla rabbit assessed as decrease in body weight at 8.14 mg/kg, iv administered as pluronic F127 formulation at 4 intervals for 21 days and observed 3 weeks post last injection; assay type: organism-based, Oryctolagus cuniculus; settings: in vivo, 2544 h, time 106 day
[8] = Acute toxicity in Wistar rat assessed as decrease in body weight administered intravenously as pluronic F127 formulation and measured for 14 days; settings: in vivo, iv, 336 h, dose 15-279 mg/kg, time 14 day
[9] = Acute toxicity in ICR mouse assessed as kidney lesion at 183 to 960 mg/kg, iv administered as pluronic F127 formulation and measured for 14 days; assay type: organism-based; settings: in vivo, 336 h, dose 183-960 mg/kg, time 14 day
[10] = Acute toxicity in Wistar rat assessed as coprostasis at 15 to 279 mg/kg, iv administered as pluronic F127 formulation and measured for 14 days; assay type: organism-based; settings: in vivo, 336 h, dose 15-279 mg/kg, time 14 day
[11] = Acute toxicity in ICR mouse assessed as hypertrophied adrenal gland at 183 to 960 mg/kg, iv administered as pluronic F127 formulation and measured for 14 days; assay type: organism-based; settings: in vivo, 336 h, dose 183-960 mg/kg, time 14 day
[12] = Acute toxicity in ICR mouse assessed as liver damage at 183 to 960 mg/kg, iv administered as pluronic F127 formulation and measured for 14 days; assay type: organism-based; settings: in vivo, 336 h, dose 183-960 mg/kg, time 14 day
[13] = Acute toxicity in Wistar rat assessed as maximum tolerated dose administered intravenously as pluronic F127 formulation and measured for 14 days; settings: in vivo, route iv, time 14 day
[14] = C0 in Soviet Chinchilla rabbit at 8.1 mg/kg, iv administered as pluronic F127 formulation measured upto 72 hrs by high-performance liquid chromatography tandem mass spectrometric analysis; assay type: ADME, organism-based, Oryctolagus cuniculus; settings: in vivo
[15] = C0 in Albino Wistar rat at 15 mg/kg, iv administered as pluronic F127 formulation measured upto 72 hrs by high-performance liquid chromatography tandem mass spectrometric analysis; assay type: ADME, organism-based; settings: in vivo
[16] = Ratio of AUC (t to infinity) to AUC (0 to infinity) in Soviet Chinchilla rabbit at 8.1 mg/kg, iv administered as pluronic F127 formulation measured upto 72 hrs by high-performance liquid chromatography tandem mass spectrometric analysis; assay type: ADME, organism-based, Oryctolagus cuniculus; settings: in vivo
[17] = Clearance in Albino Wistar rat at 15 mg/kg, iv administered as pluronic F127 formulation measured upto 72 hrs by high-performance liquid chromatography tandem mass spectrometric analysis; assay type: ADME, organism-based; settings: in vivo
[18] = MRT (0 to t) in Albino Wistar rat at 15 mg/kg, iv administered as pluronic F127 formulation measured upto 72 hrs by high-performance liquid chromatography tandem mass spectrometric analysis; assay type: ADME, organism-based; settings: in vivo
[19] = Subchronic toxicity in Wistar rat assessed as diarrhoea at 58 mg/kg, iv administered as pluronic F127 formulation daily for 28 days and observed on days 4 to 5; assay type: organism-based; settings: in vivo, 672 h, time 28 day
[20] = Chronic toxicity in rat assessed as reduction in grooming frequency at 22.5 mg/kg, iv administered as pluronic F127 formulation at 4 intervals for 21 days and observed 3 weeks post last injection; assay type: organism-based; settings: in vivo, 2544 h, time 106 day
[21] = Chronic toxicity in rat assessed as neurological disorder at 15 to […] mg/kg, iv administered as pluronic F127 formulation at 4 intervals for 21 days and observed 3 weeks post last injection; assay type: organism-based; settings: in vivo, 2544 h, dose lower 15 mg/kg, time 106 day
[22] = Chronic toxicity in rat assessed as change in volume of excreted urine at 18.75 to 22.5 mg/kg, iv administered as pluronic F127 formulation at 4 intervals for 21 days and observed 3 weeks post last injection; assay type: organism-based; settings: in vivo, 2544 h, dose 18.75-22.5 mg/kg, time 106 day
[23] = Chronic toxicity in rat assessed as increase in relative mass of liver at 15 to 22.5 mg/kg, iv administered as pluronic F127 formulation at 4 intervals for 21 days and observed 3 weeks post last injection relative to control; assay type: organism-based; settings: in vivo, 2544 h, dose 15-22.5 mg/kg, time 106 day
[24] = Chronic toxicity in rat assessed as increase in relative brain mass administered intravenously as pluronic F127 formulation at 4 intervals for 21 days and observed 3 weeks post last injection relative to control; assay type: tissue-based; settings: in vivo, iv, 2544 h, time 106 day
[25] = Chronic toxicity in rat assessed as increase in relative mass of pancreas administered intravenously as pluronic F127 formulation at 4 intervals for 21 days and observed 3 weeks post last injection relative to control; assay type: tissue-based; settings: in vivo, iv, 2544 h, time 106 day
[26] = Chronic toxicity in rat assessed as increase in relative mass of adrenal gland administered intravenously as pluronic F127 formulation at 4 intervals for 21 days and observed 3 weeks post last injection relative to control; assay type: tissue-based; settings: in vivo, iv, 2544 h, time 106 day
[27] = Chronic toxicity in Soviet Chinchilla rabbit assessed as urine alkalization at 10.17 to 12.21 mg/kg, iv administered as pluronic F127 formulation at 4 intervals for 21 days and observed 3 weeks post last injection; assay type: organism-based, Oryctolagus cuniculus; settings: in vivo, 2544 h, dose 10.17-12.21 mg/kg, time 106 day
[28] = Chronic toxicity in Soviet Chinchilla rabbit assessed as increase in relative pancreas mass at 8.14 to 12.21 mg/kg, iv administered as pluronic F127 formulation at 4 intervals for 21 days and observed 3 weeks post last injection; assay type: organism-based, Oryctolagus cuniculus; settings: in vivo, 2544 h, dose 8.14-12.21 mg/kg, time 106 day
[29] = Chronic toxicity in Soviet Chinchilla rabbit assessed as increase in body weight at 12.21 mg/kg, iv administered as pluronic F127 formulation at 4 intervals for 21 days and observed 3 weeks post last injection relative to control; assay type: organism-based, Oryctolagus cuniculus; settings: in vivo, 2544 h, time 106 day

**Q.** Which CC50 (CWR22R [1]) does the source give for `CC(=O)O[C@@]12CO[C@@H]1C[C@H](O)[C@@]1(C)C(=O)[C@H](O)C3=C(C)[C@@H](OC(=O)[C@H](OC(=O)CCCc4cn(CCCNC(=O)[C@H](Cc5ccc(O)cc5)NC(=O)[C@H](Cc5ccccc5)NC(=O)CCC(=O)NCCCCCC(=O)N(CCCC[C@H](NC(=O)N[C@@H](CCC(=O)O)C(=O)O)C(=O)O)Cc5cccc(Cl)c5)nn4)[C@@H](NC(=O)OC(C)(C)C)c4ccccc4)C[C@@](O)([C@@H](OC(=O)c4ccccc4)[C@H]21)C3(C)C` here?
**A.** Its CC50 is 2.7 nM.

**Q.** What about the Activity [2] of the same compound?
**A.** The Activity was “Toxic”.

**Q.** And the inhibition in vivo at 20 mg/kg (CWR22R [3])?
**A.** The inhibition in vivo at 20 mg/kg was 85%.

**Q.** And the Activity [4]?
**A.** The Activity was “Non-Toxic”.

**Q.** And the Activity [5]?
**A.** The Activity was “Non-Toxic”.

**Q.** What about the Activity [6] of the same compound?
**A.** The Activity was “Non-Toxic”.

**Q.** And the Activity [7]?
**A.** The Activity was “Toxic”.

**Q.** And the Activity [8]?
**A.** The Activity was “Toxic”.

**Q.** What about the Activity [9] of the same compound?
**A.** The Activity was “Toxic”.

**Q.** And the Activity [10]?
**A.** The Activity was “Toxic”.

**Q.** And the Activity [11]?
**A.** The Activity was “Toxic”.

**Q.** What about the Activity [12] of the same compound?
**A.** The Activity was “Toxic”.

**Q.** And the MTD at 336 h [13]?
**A.** The MTD at 336 h was 15 mg/kg.

**Q.** What about the C0 at 72 h [14] of the same compound?
**A.** Its C0 at 72 h is 79 µg/mL.

**Q.** And the C0 at 72 h [15]?
**A.** The C0 at 72 h was 153 µg/mL.

**Q.** What about the “Ratio AUC” value [16] of the same compound?
**A.** Its value is 12%.

**Q.** And the clearance [17]?
**A.** Its clearance is 9.15 mL/min/kg.

**Q.** What about the MRT last at 72 h [18] of the same compound?
**A.** Its MRT last at 72 h is 24 min.

**Q.** What about the Activity [19] of the same compound?
**A.** Its Activity is “Toxic”.

**Q.** And the Activity [20]?
**A.** The Activity was “Toxic”.

**Q.** What about the Activity [21] of the same compound?
**A.** Its Activity is “Non-Toxic”.

**Q.** And the Activity [22]?
**A.** The Activity was “Toxic”.

**Q.** And the Activity [23]?
**A.** Its Activity is “Toxic”.

**Q.** What about the Activity [24] of the same compound?
**A.** The Activity was “Toxic”.

**Q.** What about the Activity [25] of the same compound?
**A.** Its Activity is “Toxic”.

**Q.** And the Activity [26]?
**A.** Its Activity is “Toxic”.

**Q.** What about the Activity [27] of the same compound?
**A.** The Activity was “Toxic”.

**Q.** And the Activity [28]?
**A.** Its Activity is “Toxic”.

**Q.** And the Activity [29]?
**A.** Its Activity is “Toxic”.
